Measured values reported in ChEMBL document CHEMBL4742403, “Tricyclic protein kinase inhibitors for promoting liver regeneration or reducing or preventing hepatocyte death” (2019).

Tests used:
Homo sapiens [1] = organism: Homo sapiens; test: (§1) Selectivity index, ratio of inhibition of full length human MKK7 (M1 to R419 residues) expressed in mammalian expression system assessed as residual percent of control binding at 100 nM relative to control to inhibition of partial length human MKK4 (S84 to D399 residues) expressed in mammalian expression system assessed as residual percent of control binding at 100 nM relative to control
Homo sapiens [2] = organism: Homo sapiens; test: as §1, with “JNK1” for “MKK7”, “Q384” for “R419”
Homo sapiens [3] = organism: Homo sapiens; test: Selectivity index, ratio of inhibition of B-raf (unknown origin) to inhibition of partial length human MKK4 (S84 to D399 residues) expressed in mammalian expression system assessed as residual percent of control binding at 100 nM relative to control

Measured: Selectivity ratio

CS(=O)(=O)Nc1ccc(F)c(C(=O)c2ccc3[nH]c4ncc(-c5ccc(S(N)(=O)=O)cc5)cc4c3c2)c1F
> 30: all assays above

CCCS(=O)(=O)Nc1ccc(F)c(C(=O)c2ccc3[nH]c4ncc(-c5ccncc5)cc4c3c2)c1F
> 30: all assays above

CCCS(=O)(=O)Nc1ccc(F)c(C(=O)c2ccc3[nH]c4ncc(-c5ccc(S(N)(=O)=O)cc5)cc4c3c2)c1F
> 30: all assays above

CCCS(=O)(=O)Nc1ccc(F)c(C(=O)c2ccc3[nH]c4ncc(-c5ccc(C(N)=O)cc5)cc4c3c2)c1F
> 30: all assays above

CCCS(=O)(=O)Nc1ccc(F)c(C(=O)c2ccc3[nH]c4ncc(-c5ccc(C(=O)NCC(O)CO)nc5)cc4c3c2)c1F (configuration not stated)
> 30: all assays above

CCCS(=O)(=O)Nc1ccc(F)c(C(=O)c2ccc3[nH]c4ncc(-c5ccc(S(=O)(=O)NCC(O)CO)nc5)cc4c3c2)c1F (configuration not stated)
> 30: all assays above

CCCS(=O)(=O)Nc1ccc(F)c(C(=O)c2ccc3[nH]c4ncc(-c5ccc(C(=O)O)cc5)cc4c3c2)c1F
> 30: all assays above

CCCS(=O)(=O)Nc1cccc(C(=O)c2ccc3[nH]c4ncc(Cl)cc4c3c2)c1F
> 30: all assays above

CCCS(=O)(=O)Nc1ccc(F)c(C(=O)c2ccc3[nH]c4ncc(-c5ccc(OCC(O)CO)cc5)cc4c3c2)c1F (configuration not stated)
> 30: all assays above

CCCS(=O)(=O)Nc1ccc(F)c(C(=O)c2ccc3[nH]c4ncc(Cl)cc4c3c2)c1F
> 30: all assays above

CCS(=O)(=O)Nc1ccc(F)c(C(=O)c2ccc3[nH]c4ncc(-c5ccc(S(N)(=O)=O)cc5)cc4c3c2)c1F
> 30: all assays above

CCCS(=O)(=O)Nc1ccc(F)c(C(=O)c2ccc3[nH]c4ncc(-c5ccc(-c6nnn[nH]6)cc5)cc4c3c2)c1F
> 30: all assays above

CS(=O)(=O)Nc1c(F)ccc(C(=O)c2ccc3[nH]c4ncc(Cl)cc4c3c2)c1F
> 30: all assays above

CCCS(=O)(=O)Nc1ccc(F)c(C(=O)c2ccc3[nH]c4ncc(-c5ccc(N)nc5)cc4c3c2)c1F
> 30: all assays above
